Earlier results in patent US20220016116A1, “DETERMINING DRUG COMBINATIONS, SYNERGISTIC DRUG COMBINATION AND USE THEREOF IN PANCREATIC CANCER TREATMENT” (Innoplexus AG, priority 2020, published 2022).

Assays:
[1] = biological target: human epidermal growth factor receptor (EGFR) family (EGFR/HER1, HER2, and HER4) tyrosine kinases; details: read-out: IC50 (affinity)
[2] = tested on: PDAC cell
[3] = independent of drug concentrations from 250 ng/mL to 1000 ng/mL
[4] = 45 mg orally once daily, CV 35%

- IC50 [1]: 6 nM
- bound to plasma proteins [3]: 98%
- Cmax, geometric mean [4]: 108 ng/mL
- area under the concentration-time curve (AUC) [4]: 2213 ng·h/mL
- volume of distribution (CV 18%): 1889 L
- mean absolute bioavailability (after oral administration): 80%
- time to reach maximum concentration (oral): approximately 6.0 h
SMILES: COc1cc2ncnc(Nc3ccc(F)c(Cl)c3)c2cc1NC(=O)/C=C/CN1CCCCC1 [Dacomitinib, (2E)-N-16-4-(piperidin-1-yl) but-2-enamide]
- cell migration and invasion ([2]; through inhibition of EMT markers ZEB1, Snail and N-cadherin): attenuated cell migration and invasion
- PDAC cell proliferation ([2]; via inhibition of FOXM1 and its targets Aurora kinase B and cyclin B1): diminishes PDAC cell proliferation
- apoptosis and radio-sensitivity ([2]; via inhibition of anti-apoptotic proteins survivin and MCL1): induces apoptosis and potentiated radio-sensitivity
